{"source": "patent US10828311B2", "about": "“Controlled release compositions and their methods of use” (BAYER NEW ZEALAND LTD, priority 2012, dated 2020)", "origin": "cited, not measured here", "test_system": "microbes", "settings": "for Cloxacillin in New Zealand"}
{"smiles": "Cc1onc(-c2ccccc2Cl)c1C(=O)N[C@@H]1C(=O)N2[C@@H]1SC(C)(C)[C@@H]2C(=O)O", "note": "[Cloxacillin, cloxacillin]", "values": [{"measurement": "MIC90", "value": 0.5, "unit": "µg/mL"}]}
